The source of these data is patent publication US9144595B2, “APLs for treating arthritis” (University of Tennessee Research Foundation, priority 2009, dated 2015).

For data set [1], the system named is splenocytes of DR1 transgenic mice. The data set can be described thus: Oral APL A12: IFNγ production by cultured splenocytes of DR1 transgenic mice. Format: in vivo, mouse.
The subject of data set [2] is Peyer's Patch cells of DR1 TCRtg+/+ mice. The experiment in a line: Oral APL A12: IL-17 and IL-10 in cultures of Peyer's Patch cells of DR1 TCRtg+/+ mice. Format: in vivo, mouse.
Data set [3] concerns patients with recent onset of type 1 diabetes mellitus. The following applies: IFNγ and IL-5 ELISPOT, weeks 0-26; cited from earlier work.
Data set [4] relates to patients with RA. Particulars: cited from earlier work.
The test system of data set [5] is murine models of oral tolerance. The data set can be described thus: Murine models of oral tolerance. Particulars: mouse, in vivo. From the text: A form of CII based therapy has been tried in patients with RA and juvenile RA by administering intact native chick or bovine CII to patients. Seven trials of treatment with oral CII have been reported including two of our own. […] Most patients in these studies also received NSAIDs which block oral tolerance and systemic tolerance. The use of NSAIDS might have been responsible for the mixed results of oral CII in RA. […] Furthermore, we have applied these crucial data in designing oral tolerance trials in humans. We can down regulate with oral CII, PBMC production of IFNγ to α1(II) in RA patients who take NSAIDS plus misoprostol and/or DMARDS and anti-TNFα therapies. Oral administration of low dose antigen generates regulatory T cells, which act in the respective microenvironment in a non-antigen specific manner by producing down-regulatory cytokines such as IL4, IL10 and TGFbeta, a Th2/Th3 cytokine pattern.

The test system of data set [6] is DR1 Transgenic mice. The data set can be described thus: Effect of A12 on CIA in DR1 Transgenic mice (CII plus A12; intravenous A12 after CII-immunization). It is filed as in vivo, mouse. On the procedure:
Assuming that CII263-270 was key to developing immunity to the intact CII molecule, a number of analog peptides where amino acids within this small segment were substituted with those found in the corresponding sites of nonarthritogenic type I collagen were prepared and tested. […] The APL A12 developed for this study has the following amino acid sequence: LGPKGQTGEBG[IAGNKGDQGPK]GEBGPA (SEQ ID NO: 3) where B=hydroxproline. The core determinant of human CII263-270 is bracketed. The underlined residues are those substituted to produce APL A12. The residues amino terminal and carboxy terminal to the core determinant is from the normal human CII sequence.

Setting [7] is: mice gavaged with 50 μg CII263-270 9 times over 2 weeks, cells cultured with PBS.
Setting [8] is: mice gavaged with 50 μg CII263-270, cells cultured with APL A12 50 μg/ml.
[9] abbreviates: mice gavaged with 50 μg CII263-270, cells cultured with CII263-270 50 μg/ml.
[10] abbreviates: mice gavaged with PBS, cells cultured with CII263-270 50 μg/ml.

With “FKGEQGPK [CII263-270, reference compound]”, the “IFNγ Levels in Splenocyte Culture” value in data set [1] (mice gavaged with 50 μg CII263-270 8 times over 2 weeks, splenocytes cultured with PBS) is on record as 68 ± 85 pg/mL; in data set [1] (mice gavaged with 50 μg CII263-270, splenocytes cultured with APL A12 50 μg/ml), 80 ± 52 pg/mL; in data set [1] (mice gavaged with 50 μg CII263-270, splenocytes cultured with CII263-270 50 μg/ml), 124 ± 84 pg/mL; in data set [1] (mice gavaged with PBS, splenocytes cultured with CII263-270 50 μg/ml), 280 ± 222 pg/mL. The “II-10 Levels in Peyer's Patch Cultures” value in data set [2] (setting [7]) was 15 pg/mL; in data set [2] (setting [8]), 35 pg/mL; in data set [2] (setting [9]), 15 pg/mL; in data set [2] (setting [10]), 45 pg/mL. The “IL-17 Levels in Peyer's Patch Cultures” value in data set [2] (setting [7]) turned out to be 11 pg/mL; in data set [2] (setting [8]) it was 62 pg/mL; in data set [2] (setting [9]) it was 256 pg/mL; in data set [2] (setting [10]) it was 30 pg/mL.

Turning to SHLVEALALVAGERG [NBI-6024], the “PBMC ELISPOT responses to B(9-23) epitope and NBI-6024” value in data set [3] is listed as “induced, predominantly Th2 responses”.

Take “[O]QKRAAYDQ[U]YGHAAFE (QKRAAYDQYGHAAFE; Synthetic peptide dnaJP1) [synthetic peptide derived from bacterial heat shock protein]”: in data set [4] (CD3+ cells, oral, six months), the cytokine profile entry was “switch in the cytokine profile from Th1 to Th2”. In data set [4] (oral 0.25, 2.5 and 25 mg per day for six months), the tolerability result is “well tolerated and no significant side effects occurred”. In addition, the worsening of arthritis entry in data set [4] (oral, six months) is “no worsening of arthritis”.

For the molecule etanercept, the oral tolerance induction entry in data set [5] was “do not block oral tolerance induction”.

B1: Ova: control antigen given intravenously in Table I (protein, UniProt P01012 2-386, looked up)
Ovalbumin: GSIGAASMEFCFDVFKELKVHHANENIFYCPIAIMSALAMVYLGAKDSTRTQINKVVRFDKLPGFGDSIEAQCGTSVNVHSSLRDILNQITKPNDVYSFSLASRLYAEERYPILPEYLQCVKELYRGGLEPINFQTAADQARELINSWVESQTNGIIRNVLQPSSVDSQTAMVLVNAIVFKGLWEKAFKDEDTQAMPFRVTEQESKPVQMMYQIGLFRVASMASEKMKILELPFASGTMSMLVLLPDEVSGLEQLESIINFEKLTEWTSSNVMEERKIKVYLPRMKMEEKYNLTSVLMAMGITDVFSSSANLSGISSAESLKISQAVHAAHAEINEAGREVVGSAEAGVDAASVSEEFRADHPFLFCIKHIATNAVLFFGRCVSP
As for B1, the “Antibodies to CII” value in data set [6] (1 mg total i.v.) was 42 ± 10. In addition, in data set [6] (arthritis incidence, 1 mg total i.v. on days 10, 12, 14 after CII-immunization), the Incidence is recorded as 7/10.
